According to PubChem BioAssay AID1918947 (Molecular Pharmacology Branch, DTP, NCI, 2023):
Where “and” joins values, the source holds several entries; their conditions need not be identical. Equal entries are not always repeated.

Test system: A498 complex spheroid viability
Experiment: Anticancer human tumor A498 cell line growth inhibition;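 note: spheroids exposed to agents for seven days before readout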;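 for viability, T/C: 100% = DMSO vehicle-treated spheroids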
Conditions: for viability, T/C: stronger effect = lower value
In short: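 Complex spheroids of tumor cells with HUVEC and human MSCs, exposed to iadademstat combined with other agents. Each agent tested in half-log steps from near clinical Cmax (else 10 microM top), DMSO ≤0.25%.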

[1] = curve of first compound, second compound 0.1 µM
[2] = curve of first compound, second compound 0.316 µM
[3] = curve of first compound, second compound 1 µM
[4] = curve of first compound, second compound 3.16 µM
[5] = curve of first compound, second compound 10 µM
[6] = second compound 0.1 µM, first compound 0.0316 µM
[7] = second compound 0.1 µM, first compound 0.1 µM
[8] = second compound 0.316 µM, first compound 0.0316 µM
[9] = second compound 0.316 µM, first compound 0.1 µM
[10] = second compound 1 µM, first compound 0.0316 µM
[11] = second compound 1 µM, first compound 0.1 µM
[12] = second compound 3.16 µM, first compound 0.0316 µM
[13] = second compound 3.16 µM, first compound 0.1 µM
[14] = second compound 10 µM, first compound 0.0316 µM
[15] = second compound 10 µM, first compound 0.1 µM
[16] = second compound 0.1 µM, first compound 0.00949 µM
[17] = second compound 0.1 µM, first compound 0.03 µM
[18] = second compound 0.1 µM, first compound 0.0949 µM
[19] = second compound 0.1 µM, first compound 0.3 µM
[20] = second compound 0.1 µM, first compound 0.949 µM
[21] = second compound 0.1 µM, first compound 3 µM
[22] = second compound 0.316 µM, first compound 0.00949 µM
[23] = second compound 0.316 µM, first compound 0.03 µM
[24] = second compound 0.316 µM, first compound 0.0949 µM
[25] = second compound 0.316 µM, first compound 0.3 µM
[26] = second compound 0.316 µM, first compound 0.949 µM
[27] = second compound 0.316 µM, first compound 3 µM
[28] = second compound 1 µM, first compound 0.00949 µM
[29] = second compound 1 µM, first compound 0.03 µM
[30] = second compound 1 µM, first compound 0.0949 µM
[31] = second compound 1 µM, first compound 0.3 µM
[32] = second compound 1 µM, first compound 0.949 µM
[33] = second compound 1 µM, first compound 3 µM
[34] = second compound 3.16 µM, first compound 0.00949 µM
[35] = second compound 3.16 µM, first compound 0.03 µM
[36] = second compound 3.16 µM, first compound 0.0949 µM
[37] = second compound 3.16 µM, first compound 0.3 µM
[38] = second compound 3.16 µM, first compound 0.949 µM
[39] = second compound 3.16 µM, first compound 3 µM
[40] = second compound 10 µM, first compound 0.00949 µM
[41] = second compound 10 µM, first compound 0.03 µM
[42] = second compound 10 µM, first compound 0.0949 µM
[43] = second compound 10 µM, first compound 0.3 µM
[44] = second compound 10 µM, first compound 0.949 µM
[45] = second compound 10 µM, first compound 3 µM

CCc1c2c(nc3ccc(O)cc13)-c1cc3c(c(=O)n1C2)COC(=O)[C@]3(O)CC
viability, T/C (compound 0.000949 µM): 42.1% and 37.3% | viability, T/C (compound 0.003 µM): 33% and 33.4% | viability, T/C (compound 0.00949 µM): 24.4% and 22.1% | viability, T/C (compound 0.03 µM): 1.45% and 0.7% | viability, T/C (compound 0.0949 µM): 0.15% | viability, T/C (compound 0.3 µM): 0.18% and 0.21% | IC50 (curve of compound): < 0.949 nM

CC1COCCN1c1cc(C2(S(C)(=N)=O)CC2)nc(-c2ccnc3[nH]ccc23)n1 (stereo unspecified) + NC1CC1c1ccc(-c2cccc(O)c2)cc1
IC50 [1]: 409 nM | IC50 [2]: 509 nM | IC50 [3]: 552 nM | IC50 [4]: 503 nM | IC50 [5]: 539 nM | viability, T/C [6]: 92% | viability, T/C [7]: 85.2% | viability, T/C (second compound 0.1 µM, first compound 0.316 µM): 55.2% | viability, T/C (second compound 0.1 µM, first compound 1 µM): 28% | viability, T/C (second compound 0.1 µM, first compound 3.16 µM): 16.1% | viability, T/C (second compound 0.1 µM, first compound 10 µM): 11.5% | viability, T/C [8]: 97.8% | viability, T/C [9]: 96.8% | viability, T/C (second compound 0.316 µM, first compound 0.316 µM): 68.4% | viability, T/C (second compound 0.316 µM, first compound 1 µM): 23.9% | viability, T/C (second compound 0.316 µM, first compound 3.16 µM): 16.7% | viability, T/C (second compound 0.316 µM, first compound 10 µM): 15.6% | viability, T/C [10]: 86.7% | viability, T/C [11]: 94% | viability, T/C (second compound 1 µM, first compound 0.316 µM): 69.9% | viability, T/C (second compound 1 µM, first compound 1 µM): 28% | viability, T/C (second compound 1 µM, first compound 3.16 µM): 15.1% | viability, T/C (second compound 1 µM, first compound 10 µM): 10.6% | viability, T/C [12]: 85.2% | viability, T/C [13]: 87.9% | viability, T/C (second compound 3.16 µM, first compound 0.316 µM): 63.9% | viability, T/C (second compound 3.16 µM, first compound 1 µM): 28.1% | viability, T/C (second compound 3.16 µM, first compound 3.16 µM): 16.8% | viability, T/C (second compound 3.16 µM, first compound 10 µM): 11.2% | viability, T/C [14]: 89.7% | viability, T/C [15]: 84.8% | viability, T/C (second compound 10 µM, first compound 0.316 µM): 63% | viability, T/C (second compound 10 µM, first compound 1 µM): 34% | viability, T/C (second compound 10 µM, first compound 3.16 µM): 17.8% | viability, T/C (second compound 10 µM, first compound 10 µM): 10.1%

NS(=O)(=O)OCC1CC(n2ccc3c(NC4CCc5ccccc54)ncnc32)CC1O (stereo unspecified) + NC1CCC(NC2CC2c2ccccc2)CC1
IC50 [1]: 20.8 nM | IC50 [2]: 20.2 nM | IC50 [3]: < 9.49 nM | IC50 [4]: < 9.49 nM | IC50 [5]: < 9.49 nM | viability, T/C [16]: 61.1% | viability, T/C [17]: 43.3% | viability, T/C [18]: 35% | viability, T/C [19]: 24% | viability, T/C [20]: 19.4% | viability, T/C [21]: 15.3% | viability, T/C [22]: 64.5% | viability, T/C [23]: 41.2% | viability, T/C [24]: 30.8% | viability, T/C [25]: 22.7% | viability, T/C [26]: 17.8% | viability, T/C [27]: 15.6% | viability, T/C [28]: 47.8% | viability, T/C [29]: 29.6% | viability, T/C [30]: 21.4% | viability, T/C [31]: 19.5% | viability, T/C [32]: 14.3% | viability, T/C [33]: 11.8% | viability, T/C [34]: 31.8% | viability, T/C [35]: 15.6% | viability, T/C [36]: 16.6% | viability, T/C [37]: 11.5% | viability, T/C [38]: 8.41% | viability, T/C [39]: 6.43% | viability, T/C [40]: 11.8% | viability, T/C [41]: 8.27% | viability, T/C [42]: 6.84% | viability, T/C [43]: 5.05% | viability, T/C [44]: 4.15% | viability, T/C [45]: 6.13%

CCN(c1cc(-c2ccc(CN3CCOCC3)cc2)cc(C(=O)NCc2c(C)cc(C)[nH]c2=O)c1C)C1CCOCC1 + NC1CC1c1ccc(-c2cccc(O)c2)cc1
IC50 [1]: > 3000 nM | IC50 [2]: > 3000 nM | IC50 [3]: > 3000 nM | IC50 [4]: > 3000 nM | IC50 [5]: > 3000 nM | viability, T/C [16]: 98.8% | viability, T/C [17]: 112% | viability, T/C [18]: 98.9% | viability, T/C [19]: 95.1% | viability, T/C [20]: 103% | viability, T/C [21]: 96.7% | viability, T/C [22]: 108% | viability, T/C [23]: 106% | viability, T/C [24]: 108% | viability, T/C [25]: 107% | viability, T/C [26]: 101% | viability, T/C [27]: 104% | viability, T/C [28]: 100% | viability, T/C [29]: 107% | viability, T/C [30]: 97.6% | viability, T/C [31]: 94.7% | viability, T/C [32]: 98.4% | viability, T/C [33]: 95.1% | viability, T/C [34]: 94% | viability, T/C [35]: 92.6% | viability, T/C [36]: 89% | viability, T/C [37]: 90.1% | viability, T/C [38]: 93.8% | viability, T/C [39]: 100% | viability, T/C [40]: 96.6% | viability, T/C [41]: 97.2% | viability, T/C [42]: 94.9% | viability, T/C [43]: 93.1% | viability, T/C [44]: 90.6% | viability, T/C [45]: 91%

CC(C)CC(NC(=O)CNC(=O)c1cc(Cl)ccc1Cl)B1OC(=O)CC(CC(=O)O)(C(=O)O)O1 (stereo unspecified) + NC1CC1c1ccc(-c2cccc(O)c2)cc1
IC50 [1]: 4.26 nM | IC50 [2]: 4.8 nM | IC50 [3]: 4.44 nM | IC50 [4]: 4.29 nM | IC50 [5]: 3.46 nM | viability, T/C (second compound 0.1 µM, first compound 0.000316 µM): 93.7% | viability, T/C (second compound 0.1 µM, first compound 0.001 µM): 96.5% | viability, T/C (second compound 0.1 µM, first compound 0.00316 µM): 60% | viability, T/C (second compound 0.1 µM, first compound 0.01 µM): 18.1% | viability, T/C [6]: 5.77% | viability, T/C [7]: 2.14% | viability, T/C (second compound 0.316 µM, first compound 0.000316 µM): 106% | viability, T/C (second compound 0.316 µM, first compound 0.001 µM): 114% | viability, T/C (second compound 0.316 µM, first compound 0.00316 µM): 68.1% | viability, T/C (second compound 0.316 µM, first compound 0.01 µM): 17.3% | viability, T/C [8]: 5.27% | viability, T/C [9]: 1.97% | viability, T/C (second compound 1 µM, first compound 0.000316 µM): 96.6% | viability, T/C (second compound 1 µM, first compound 0.001 µM): 102% | viability, T/C (second compound 1 µM, first compound 0.00316 µM): 62.9% | viability, T/C (second compound 1 µM, first compound 0.01 µM): 16.8% | viability, T/C [10]: 3.81% | viability, T/C [11]: 1.83% | viability, T/C (second compound 3.16 µM, first compound 0.000316 µM): 91.8% | viability, T/C (second compound 3.16 µM, first compound 0.001 µM): 94.4% | viability, T/C (second compound 3.16 µM, first compound 0.00316 µM): 61% | viability, T/C (second compound 3.16 µM, first compound 0.01 µM): 16.9% | viability, T/C [12]: 3.71% | viability, T/C [13]: 1.96% | viability, T/C (second compound 10 µM, first compound 0.000316 µM): 98.4% | viability, T/C (second compound 10 µM, first compound 0.001 µM): 92.1% | viability, T/C (second compound 10 µM, first compound 0.00316 µM): 51.7% | viability, T/C (second compound 10 µM, first compound 0.01 µM): 15.6% | viability, T/C [14]: 2.82% | viability, T/C [15]: 1.07%

NS(=O)(=O)OCC1CC(n2ccc3c(NC4CCc5ccccc54)ncnc32)CC1O (stereo unspecified)
viability, T/C (compound 0.00949 µM): 81% and 90.7% | viability, T/C (compound 0.03 µM): 57.2% and 60.5% | viability, T/C (compound 0.0949 µM): 27.1% and 30.7% | viability, T/C (compound 0.3 µM): 18.4% and 21.2% | viability, T/C (compound 0.949 µM): 12.2% and 15.6% | viability, T/C (compound 3 µM): 9.37% and 11.7% | IC50 (curve of compound): 39.2 nM and 45.3 nM

Nc1ncn(C2CC(O)C(CO)S2)c(=O)n1 (stereo unspecified)
viability, T/C (compound 0.000949 µM): 105% and 109% | viability, T/C (compound 0.003 µM): 104% and 117% | viability, T/C (compound 0.00949 µM): 99.6% and 102% | viability, T/C (compound 0.03 µM): 85.2% and 89.5% | viability, T/C (compound 0.0949 µM): 59.4% and 70% | viability, T/C (compound 0.3 µM): 33.8% and 40% | IC50 (curve of compound): 144 nM and 202 nM
